Our source for the IC50 values is patent US20160159789A1, “SUBSTITUTED PYRAZOLOPYRIDINES” (BAYER PHARMA AKTIENGESELLSCHAFT, priority 2013, published 2016).

The assay addresses T1, human full-length MKNK1 (Homo sapiens, UniProt Q9BUB5, T385D).
T1 construct: purchased Carna Biosciences 02-145; host or cells: insect cells (baculovirus expression system)
As to the kind of experiment: MKNK1 kinase high ATP assay (TR-FRET). To be noted: high ATP (2 mM final), 15 min preincubation with enzyme, GST-MKNK1 (T344D). It is filed as biochemical. Put shortly: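 GST-tagged full-length human MKNK1 from insect cells, preincubated 15 min with compound at 22° C in HEPES pH 7.5/MgCl2/DTT buffer, then reacted 30 min with 2 mM ATP and 0.06 μM biotinylated peptide (final). Phosphopeptide detected by TR-FRET (anti-pS6 pSer236/Eu-ProteinG, streptavidin-XL665), 665/620 ratio normalised to no-enzyme and no-inhibitor controls.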
(In general: In TR-FRET formats the signal depends on donor and acceptor labels being close together.)

In general, IC50 refers to the point on the concentration scale where inhibition reaches its midpoint. A high value points to weaker potency.

SMILES strings stand for the structures.

T1 sequence (Q9BUB5 1-424 isoform Q9BUB5-2 T344D): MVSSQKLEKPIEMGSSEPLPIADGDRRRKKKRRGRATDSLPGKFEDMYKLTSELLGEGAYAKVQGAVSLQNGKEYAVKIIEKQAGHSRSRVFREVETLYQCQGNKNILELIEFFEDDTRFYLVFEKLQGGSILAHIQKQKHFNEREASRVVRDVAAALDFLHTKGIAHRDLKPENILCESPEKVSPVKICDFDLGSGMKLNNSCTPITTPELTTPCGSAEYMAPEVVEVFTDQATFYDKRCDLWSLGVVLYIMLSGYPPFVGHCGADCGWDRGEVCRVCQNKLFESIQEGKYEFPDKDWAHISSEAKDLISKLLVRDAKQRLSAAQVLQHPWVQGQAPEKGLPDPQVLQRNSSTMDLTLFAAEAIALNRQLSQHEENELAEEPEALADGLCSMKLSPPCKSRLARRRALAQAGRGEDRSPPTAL

Turning to `CCCCN(C)C(=O)[C@H]1CCc2c(sc3ncnc(Nc4cc5cn[nH]c5nc4O)c23)C1` [Example 52, (7S)—N-Butyl-4-[(6-hydroxy-1H-pyrazolo[3,4-b]pyridin-5-yl)amino]-N-methyl-5,6,7,8-tetrahydro[1]benzothieno[2,3-d]pyrimidine-7-carboxamide], the IC50 stood at 6 nM.

The compound `CN(C)C(=O)[C@H]1CCc2c(sc3ncnc(Nc4cc5cn[nH]c5cn4)c23)C1` [Example 60, (7S)—N,N-Dimethyl-4-(1H-pyrazolo[3,4-c]pyridin-5-ylamino)-5,6,7,8-tetrahydro[1]benzothieno[2,3-d]pyrimidine-7-carboxamide] gave a 50% inhibitory concentration (IC50) of 7.7 nM. With `CC(C)N(C)C(=O)[C@H]1CCc2c(sc3ncnc(Nc4cc5cn[nH]c5nc4O)c23)C1` [Example 114, (7S)-4-[(6-Hydroxy-1H-pyrazolo[3,4-b]pyridin-5-yl)amino]-N-methyl-N-(propan-2-yl)-5,6,7,8-tetrahydro[1]benzothieno[2,3-d]pyrimidine-7-carboxamide], the IC50 came to 4.6 nM. Against the preceding compound, the IC50 is about 1.7-fold lower.

Regarding `COc1nc2[nH]ncc2cc1Nc1ncnc2sc(C(=O)N(C)CC(=O)N(C)C)nc12` [Example 130, N-[2-(Dimethylamino)-2-oxoethyl]-7-[(6-methoxy-1H-pyrazolo[3,4-b]pyridin-5-yl)amino]-N-methyl[1,3]thiazolo[5,4-d]pyrimidine-2-carboxamide], the IC50 is 212 nM. Compared with the last compound, the IC50 is about 46-fold higher.

The compound `CN(C)C(=O)[C@H]1CCc2c(sc3ncnc(Nc4cnc5[nH]ncc5c4)c23)C1` [Example 59, (7S)—N,N-Dimethyl-4-(1H-pyrazolo[3,4-b]pyridin-5-ylamino)-5,6,7,8-tetrahydro[1]benzothieno[2,3-d]pyrimidine-7-carboxamide] showed an IC50 of 2.3 nM. For `COc1nc2[nH]ncc2cc1Nc1ncnc2sc3c(c12)CC[C@H](C(=O)N(C)C)C3` [Example 53, (7S)-4-[(6-Methoxy-1H-pyrazolo[3,4-b]pyridin-5-yl)amino]-N,N-dimethyl-5,6,7,8-tetrahydro[1]benzothieno[2,3-d]pyrimidine-7-carboxamide] the value was 0.5 nM; for `CN(C)C(=O)C1CCc2c(sc3ncnc(Nc4cnc5[nH]ncc5c4)c23)C1` (racemic) [Example 27, (RS)—N,N-Dimethyl-4-(1H-pyrazolo[3,4-b]pyridin-5-ylamino)-5,6,7,8-tetrahydro[1]benzothieno[2,3-d]pyrimidine-7-carboxamide], 20.3 nM; for `CC(C)NC(=O)[C@H]1CCc2c(sc3ncnc(Nc4cc5cn[nH]c5cn4)c23)C1` [Example 80, (7S)—N-(Propan-2-yl)-4-(1H-pyrazolo[3,4-c]pyridin-5-ylamino)-5,6,7,8-tetrahydro[1]benzothieno[2,3-d]pyrimidine-7-carboxamide], 23.9 nM. With `CCc1[nH]c2ncnc(Nc3cnc4[nH]ncc4c3)c2c1C` [Example 7, N-(6-Ethyl-5-methyl-7H-pyrrolo[2,3-d]pyrimidin-4-yl)-1H-pyrazolo[3,4-b]pyridin-5-amine], the IC50 is 28.9 nM. The IC50 values of the last two compounds are within 1.5-fold of each other.

For the compound `COc1nc2[nH]ncc2cc1Nc1ncnc2sc3c(c12)CC[C@H](C(=O)N1C[C@H]2C[C@@H]1CO2)C3` [Example 41], the IC50 was found to be 1.6 nM. In turn, `C[C@@H]1COCCN1C(=O)[C@H]1CCc2c(sc3ncnc(Nc4cnc5[nH]ncc5c4)c23)C1` [Example 103, [(3R)-3-Methylmorpholin-4-yl][(7S)-4-(1H-pyrazolo[3,4-b]pyridin-5-ylamino)-5,6,7,8-tetrahydro[1]benzothieno[2,3-d]pyrimidin-7-yl]methanone] displayed an IC50 of 35.8 nM. The compound `COc1nc2[nH]ncc2cc1Nc1ncnc2sc3c(c12)CC[C@H](C(=O)N1CCN(C)CC1)C3` [Example 42] returned an IC50 of 2.1 nM. This IC50 lies about 17-fold lower than the previous one.

With `CCOC(=O)c1[nH]c2ncnc(Nc3cnc4[nH]ncc4c3)c2c1Br` [Example 12, Ethyl 5-bromo-4-(1H-pyrazolo[3,4-b]pyridin-5-ylamino)-7H-pyrrolo[2,3-d]pyrimidine-6-carboxylate], half-maximal inhibition (IC50) required 5 nM.

The compound `FC(F)(F)c1c[nH]c2ncnc(Nc3cc4cn[nH]c4cn3)c12` [Example 16, N-[5-(Trifluoromethyl)-7H-pyrrolo[2,3-d]pyrimidin-4-yl]-1H-pyrazolo[3,4-c]pyridin-5-amine] registered an IC50 of 52.9 nM. This IC50 lies about 11-fold higher than the previous one. Compound `COc1nc2[nH]ncc2cc1Nc1ncnc2sc3c(c12)CC[C@H](C(=O)N1CC(C#N)C1)C3` [Example 108, 1-({(7S)-4-[(6-Methoxy-1H-pyrazolo[3,4-b]pyridin-5-yl)amino]-5,6,7,8-tetrahydro[1]benzothieno[2,3-d]pyrimidin-7-yl}carbonyl)azetidine-3-carbonitrile] returned an IC50 of 0.7 nM. This IC50 is about 76-fold lower than that of the compound before.

`C[C@@H]1CN(C(=O)[C@H]2CCc3c(sc4ncnc(Nc5cc6cn[nH]c6cn5)c34)C2)C[C@H](C)O1` [Example 89, [(2R,6S)-2,6-Dimethylmorpholin-4-yl][(7S)-4-(1H-pyrazolo[3,4-c]pyridin-5-ylamino)-5,6,7,8-tetrahydro[1]benzothieno[2,3-d]pyrimidin-7-yl]methanone]: inhibition was half-maximal at 5.9 nM (IC50). `O=C(O)c1cc2c(Nc3cc4cn[nH]c4cn3)ncnc2[nH]1` [Example 11, 4-(1H-Pyrazolo[3,4-c]pyridin-5-ylamino)-7H-pyrrolo[2,3-d]pyrimidine-6-carboxylic acid]: the IC50 amounted to 24.1 nM. `C[C@@H]1COCCN1C(=O)[C@H]1CCc2c(sc3ncnc(Nc4cc5cn[nH]c5cn4)c23)C1` [Example 88, [(3R)-3-Methylmorpholin-4-yl][(7S)-4-(1H-pyrazolo[3,4-c]pyridin-5-ylamino)-5,6,7,8-tetrahydro[1]benzothieno[2,3-d]pyrimidin-7-yl]methanone] gave an IC50 of 8 nM.

As for `Cc1c[nH]c2ncnc(Nc3cnc4[nH]ncc4c3)c12` [Example 3, N-(5-Methyl-7H-pyrrolo[2,3-d]pyrimidin-4-yl)-1H-pyrazolo[3,4-b]pyridin-5-amine], the IC50 worked out at 25.9 nM. This IC50 is about 3.2-fold higher than that of the compound before. For `CC(C)NC(=O)C1CCc2c(sc3ncnc(Nc4cc5cn[nH]c5cn4)c23)C1` (racemic) [Example 24, (RS)—N-(Propan-2-yl)-4-(1H-pyrazolo[3,4-c]pyridin-5-ylamino)-5,6,7,8-tetrahydro[1]benzothieno[2,3-d]pyrimidine-7-carboxamide] the value was 10.7 nM; for `C[C@H]1COCCN1C(=O)[C@H]1CCc2c(sc3ncnc(Nc4cc5cn[nH]c5cn4)c23)C1` [Example 87, [(3S)-3-Methylmorpholin-4-yl][(7S)-4-(1H-pyrazolo[3,4-c]pyridin-5-ylamino)-5,6,7,8-tetrahydro[1]benzothieno[2,3-d]pyrimidin-7-yl]methanone], 10.5 nM; for `CN1CCN(C(=O)C2CCc3c(sc4ncnc(Nc5cnc6[nH]ncc6c5)c34)C2)CC1` (racemic) [Example 25, (RS)-(4-Methylpiperazin-1-yl)[4-(1H-pyrazolo[3,4-b]pyridin-5-ylamino)-5,6,7,8-tetrahydro[1]benzothieno[2,3-d]pyrimidin-7-yl]methanone], 13.8 nM. For `O=C(c1cc2c(Nc3cc4cn[nH]c4cn3)ncnc2[nH]1)N1CCCCC1` [Example 20, Piperidin-1-yl[4-(1H-pyrazolo[3,4-c]pyridin-5-ylamino)-7H-pyrrolo[2,3-d]pyrimidin-6-yl]methanone] the value was 7.8 nM.
